Activity calls are given as the source filed them.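 The calls were made as follows: active = compounds giving half or more protection of infected cells from virus-caused growth loss, again on retest; inactive = the rest.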

This experiment deals with CEM cells HIV-1 protection, formazan growth assay. Description: NCI AIDS Antiviral Assay. As to conditions: for IC50: measured here: growth of uninfected CEM cells. The method, boiled down: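 Protection of CEM cells against HIV-1 measured as cell growth via soluble formazan read-out, with five concentrations tested on both infected and uninfected cells; failure to protect may reflect toxicity.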

Take `O=[N+]([O-])c1ccc(S(=O)(=O)n2c3ccc(Br)cc3c3nc4ccccc4nc32)cc1`: the EC50 – broadly, the concentration needed to bring the measured effect to its halfway point – is above 100 µM and the IC50 (usually the concentration that inhibits the measured activity by half) is above 100 µM. Regarding `Cn1cc(C=O)c2nccnc21`, the EC50 was above 1050 µM and the IC50 was above 1050 µM. `COc1ccc(-c2cc(=O)c3c(O)c(OC)c(OC)c(OC)c3o2)cc1`: the EC50 is above 200 µM and the IC50 worked out at 55 µM.

In the case of `Nc1c[nH][nH]c(=S)c1=S`, the EC50 was above 200 µM and the IC50 worked out at 3.63 µM. For `Nc1ccc2c(c1)Oc1c(F)c(F)cc3c(=O)c(C(=O)O)cn-2c13` the same measures were above 11.5 µM and 11.2 µM. For `COc1cc(Cc2cnc(N)nc2N)cc(OC)c1OC` the same measures were above 200 µM and above 200 µM. For the compound `S=C1NCCO1`, the EC50 was above 200 µM and the IC50 was 105 µM.

Regarding `COCN1C(=O)[C@@H]2CCCN2C(=O)c2ccc(N)cc21`, the EC50 was above 200 µM and the concentration for half-maximal inhibition (IC50) was above 200 µM. `CC(=O)O[C@H]1CC[C@@]2(C)C(=CC[C@@H]3C2CC[C@]2(C)Nc4c(cnn4-c4ccccc4)CC32)C1` (some centres not stated): the result was inactive.

As for `Cc1cc(=O)oc2c(CNC(CO)C(=O)O)c(O)ccc12` (configuration not stated), the EC50 is above 200 µM and the IC50 was above 200 µM. In the case of `CC(=O)OCC1OC(n2c(=O)n(-c3ccccc3)c(=O)c3ccccc32)C(OC(C)=O)C(OC(C)=O)C1OC(C)=O` (configuration not stated), the EC50 is above 24 µM and the IC50 is above 24 µM.

Take `CC1(C)NC(c2ccccc2)c2ccsc2-n2cccc21` (configuration not stated): the EC50 was above 200 µM and the half-inhibitory concentration (IC50) was above 100 µM. `COC1=CC(=Nc2c(Cl)cc(Cl)cc2OC(=O)c2ccc([N+](=O)[O-])cc2)C=C(OC)C1=O`: the outcome was inactive. In the case of `NC1=NCC(c2ccccn2)C1c1ccc(F)cc1` (configuration not stated), the result was inactive. In the case of `CC(C)(CN1CCCCC1)C(=O)CC(SCCS(=O)(=O)O)c1ccccc1` (configuration not stated), the EC50 was above 200 µM and the IC50 is 3.31 µM.

On to `O=C(Nc1ccn(CCO)c(=O)n1)c1ccccc1`, for which the EC50 was above 692 µM and the IC50 was above 692 µM. Regarding `Cc1nc(N)nc(N)c1N1CCN(c2ccc(S(=O)(=O)N(Cc3ccccc3)Cc3ccccc3)cc2)CC1`, the EC50 was 0.0501 µM and the IC50 came out at 0.132 µM. For `C1CSCCCSCCCSCCCSCCCSC1` the same measures were above 14.1 µM and above 14.1 µM. In the case of `O=C1CSC(c2ccccc2)C1C(=O)c1ccc(NCc2nc3ccccc3[nH]2)cc1` (configuration not stated), the EC50 is above 200 µM and the IC50 is 8.71 µM. For `O=CNC12C(=O)NC(=O)C1(C(=O)O)C21CCCCC1` (configuration not stated) the same measures were above 200 µM and above 200 µM. The matching figures for `O=C1CC2c3c(OCc4ccccc4)cccc3OC2O1` (configuration not stated): above 47.9 µM and above 47.9 µM. Regarding `CC1=C(/C=C/C(C)=C/C=C/C(C)=C/C=O)C(C)(C)CCC1`, the outcome was inactive. As for `Cc1nc2ccccc2c(=O)n1NC(=S)Nc1ccc(Cl)cc1`, the EC50 was above 39.8 µM and the IC50 is above 39.8 µM. As to `O=S(O)c1cc(Cl)c(O)c(Cl)c1`, the result was inactive. In the case of `Nc1ncnc2c1sc(=S)n2-c1ccccc1`, the EC50 is above 52.5 µM and the IC50 was above 52.5 µM. For the compound `CN(CCC(N)CC(=O)NC1C=CC(n2ccc(N)nc2=O)OC1C(=O)O)C(=N)N` (configuration not stated), the EC50 is above 200 µM, the outcome was inactive and the IC50 turned out to be 31.6 µM. Regarding `N#CC1CCCCOCCOCCOCCOCCOCCCCCC1=O` (configuration not stated), the result was inactive. Take `Cc1ccc2nc3c(Cl)cc(=O)cc-3sc2c1`: the EC50 is above 7.59 µM and the IC50 was 3.89 µM. As to `NNC(=S)SSC(=S)NN`, the EC50 was above 200 µM and the IC50 stood at 21.9 µM.

For `Cc1cc(Cl)cc2c1NC(=O)C2(O)C(C)C(=O)c1ccc(Cl)cc1` (configuration not stated), the EC50 was above 186 µM and the concentration for half-maximal inhibition (IC50) amounted to 123 µM. For `CN1c2ccc(Cl)cc2C2(C(=O)NN)C(C(=O)NN)N(C3CCCCC3)C(=O)C12N` (configuration not stated) the same measures were above 87.1 µM and above 87.1 µM.

Source of the values: PubChem BioAssay AID179 (DTP/NCI, 2004).
